Drawing on patent US20250109119A1, “AMPK AGONISTS AND METHODS OF USE THEREOF” (Evvia Therapeutics, Inc., priority 2023, published 2025), this text covers EC50 and Kp for 33 compounds.

The first series deals with AMPK. The series can be described thus: EC50 data of compounds of the disclosure (Table A; AMPK agonists). Type of series: biochemical. The conditions noted are these: Table A '>10 μM'; cells list compound numbers.
As to `COc1nc(N(C)C)ccc1-c1cc2c(C(=O)NOc3ccccc3)c[nH]c2cc1Cl` [compound 1012, 6-chloro-5-(6-(dimethylamino)-2-methoxypyridin-3-yl)-N-phenoxy-1H-indole-3-carboxamide], the EC50 (usually the concentration giving half of the maximal effect) was above 10 µM.

For `CCOc1nc(N(C)C)ccc1-c1cc2c(C(=O)NOC)c[nH]c2cc1Cl` [compound 1020, 6-chloro-5-(6-(dimethylamino)-2-ethoxypyridin-3-yl)-N-methoxy-1H-indole-3-carboxamide], the EC50 is above 10 µM.

The compound `CONC(=O)c1c[nH]c2cc(Cl)c(-c3ccc(N(C)C)nc3C(F)(F)F)cc12` [compound 1021, 6-chloro-5-(6-(dimethylamino)-2-(trifluoromethyl)pyridin-3-yl)-N-methoxy-1H-indole-3-carboxamide] yielded an EC50 above 10 µM.

With `CONS(=O)(=O)c1c[nH]c2cc(Cl)c(-c3ccc(N(C)C)nc3OC)cc12` [compound 1028, 6-chloro-5-(6-(dimethylamino)-2-methoxypyridin-3-yl)-N-methoxy-1H-indole-3-sulfonamide], the EC50 was above 10 µM.

`CONC(=O)c1c[nH]c2cc(Cl)c(-c3ccc(N(C)C)nc3O)cc12` [compound 1041] yielded an EC50 above 10 µM.

`CONC(=O)c1c[nH]c2cc(Cl)c(-c3ccc(N4CCC(C)CC4)nc3OC)cc12` [compound 1049]: the EC50 was above 10 µM.

For the compound `CONC(=O)c1c[nH]c2cc(Cl)c(-c3ccc(N4CC5(CCC5)C4)nc3OC)cc12` [compound 1050], the EC50 was above 10 µM.

On to `COCCN(C)c1ccc(-c2cc3c(C(=O)NOC)c[nH]c3cc2Cl)c(OC)n1` [compound 1051], for which the EC50 is above 10 µM.

Consider `CONC(=O)c1c[nH]c2cc(Cl)c(-c3ccc(N(C)CCOC(C)C)nc3OC)cc12` [compound 1052], for which the EC50 is above 10 µM.

In the case of `CONC(=O)c1c[nH]c2cc(Cl)c(-c3ccc(N(C)CC4CCC4)nc3OC)cc12` [compound 1054], the EC50 is above 10 µM.

In the case of `CONC(=O)c1c[nH]c2cc(Cl)c(-c3ccc(N4CCC(F)(F)CC4)nc3OC)cc12` [compound 1058], the EC50 was above 10 µM.

As to `COc1nc(N(C)C)ccc1-c1cc2c(C(=O)NOCCN(C)C)c[nH]c2cc1Cl` [compound 1060], the EC50 was above 10 µM.

With `CONC(=O)c1c[nH]c2cc(Cl)c(-c3ccc(N(C)CCCN(C)C)nc3OC)cc12` [compound 1064], the EC50 is above 10 µM.

Compound `CCN(CC)c1ccc(-c2cc3c(C(=O)NOC)c[nH]c3cc2Cl)c(OC)n1` [compound 1074] had an EC50 above 10 µM.

In the case of `CCONC(=O)c1c[nH]c2cc(Cl)c(-c3ccc(N(CC)CC)nc3OC)cc12` [compound 1075], the EC50 is above 10 µM.

With `CCONC(=O)c1c[nH]c2cc(Cl)c(-c3ccc(N(C)C)nc3OC)nc12` [compound 1090], the EC50 is above 10 µM.

In the case of `CCONC(=O)c1c[nH]c2cc(Cl)c(-c3ccc(C#N)cc3OC)cc12` [compound 1097], the EC50 is above 10 µM.

Regarding `CCONC(=O)c1c[nH]c2cc(Cl)c(-c3ccc(C4(O)CCC4)nc3)cc12` [compound 1099], the EC50 is above 10 µM.

For the compound `CCc1cc(N(C)C)ccc1-c1cc2c(C(=O)NOC)c[nH]c2cc1Cl` [compound 1100], the EC50 is above 10 µM.

With `CCONC(=O)c1c[nH]c2cc(Cl)c(-c3ccc(C4(CO)CC4)nc3)cc12` [compound 1101], the EC50 was above 10 µM.

Take `CONS(=O)(=O)c1c[nH]c2cc(Cl)c(-c3ccc(C4CCCCO4)cc3)cc12` (stereo not shown) [compound 1109, 6-chloro-N-methoxy-5-(4-(tetrahydro-2H-pyran-2-yl)phenyl)-1H-indole-3-sulfonamide]: the EC50 is above 10 µM.

In turn, `CONS(=O)(=O)c1c[nH]c2cc(Cl)c(-c3ccc(-c4ccccc4)cc3)cc12` [compound 1110, 5-([1,1′-biphenyl]-4-yl)-6-chloro-N-methoxy-1H-indole-3-sulfonamide] yielded an EC50 above 10 µM.

The same series, now with this note: Table A column head '<100 nM'; cells list compound numbers.
With `CONC(=O)c1c[nH]c2cc(Cl)c(-c3ccc(N(C)C)nc3OC)cc12` [compound 1003, 6-chloro-5-(6-(dimethylamino)-2-methoxypyridin-3-yl)-N-methoxy-1H-indole-3-carboxamide], the EC50 was below 0.1 µM.

`CONC(=O)c1c[nH]c2cc(F)c(-c3ccc(C4CCCCO4)cc3)c(F)c12` (stereo not shown) [compound 1007, 4,6-difluoro-N-methoxy-5-(4-(tetrahydro-2H-pyran-2-yl)phenyl)-1H-indole-3-carboxamide] came in with an EC50 below 0.1 µM.

System in a further series: not listed separately
The series can be described thus: Blood Brain Barrier (BBB) data, brain/plasma ratio (Table B). Type of series: in vivo. To be noted: brain and plasma; calculated at a 3 hr time point; Table B column heads <0.1, 0.1-1, >1; cells list compound numbers. The procedure:
Blood Brain Barrier (BBB) data was evaluated for compounds of the disclosure and the values are shown in Table B. Brain/plasma ratio was calculated at a 3 hr time point).
For `COc1nc(N(C)C)ccc1-c1cc2c(C(=O)NO)c[nH]c2cc1Cl` [compound 1001, 6-chloro-5-(6-(dimethylamino)-2-methoxypyridin-3-yl)-N-hydroxy-1H-indole-3-carboxamide], the Kp (in general, tissue or fluid exposure divided by exposure in the circulation) at 3 h was below 0.1.

Turning to `CONC(=O)c1c[nH]c2cc(Cl)c(-c3ccc(N(C)C)nc3OC)cc12` [compound 1003, 6-chloro-5-(6-(dimethylamino)-2-methoxypyridin-3-yl)-N-methoxy-1H-indole-3-carboxamide], the Kp at 3 h was above 1.

Take `CCONC(=O)c1c[nH]c2cc(Cl)c(-c3ccc(N(C)C)nc3OC)cc12` [compound 1009, 6-chloro-5-(6-(dimethylamino)-2-methoxypyridin-3-yl)-N-ethoxy-1H-indole-3-carboxamide]: the Kp at 3 h is 0.1 to 1.

In the case of `COCCONC(=O)c1c[nH]c2cc(Cl)c(-c3ccc(N(C)C)nc3OC)cc12` [compound 1011, 6-chloro-5-(6-(dimethylamino)-2-methoxypyridin-3-yl)-N-(2-methoxyethoxy)-1H-indole-3-carboxamide], the Kp at 3 h was 0.1 to 1.

Turning to `COc1nc(N(C)C)ccc1-c1cc2c(C(=O)NOCC3CC3)c[nH]c2cc1Cl` [compound 1015, 6-chloro-N-(cyclopropylmethoxy)-5-(6-(dimethylamino)-2-methoxypyridin-3-yl)-1H-indole-3-carboxamide], the Kp at 3 h is 0.1 to 1.

Regarding `COCCONC(=O)c1c[nH]c2cc(Cl)c(-c3ccc(C4(O)CCC4)cc3)cc12` [compound 1045], the Kp at 3 h was below 0.1.

Consider `CONC(=O)C(=O)c1c[nH]c2cc(Cl)c(-c3ccc(N(C)C)nc3OC)cc12` [compound 1077, 2-(6-chloro-5-(6-(dimethylamino)-2-methoxypyridin-3-yl)-1H-indol-3-yl)-N-methoxy-2-oxoacetamide], for which the Kp at 3 h was below 0.1.

On to `CCONC(=O)C(=O)c1c[nH]c2cc(Cl)c(-c3ccc(N(C)C)nc3OC)cc12` [compound 1081], for which the Kp at 3 h was below 0.1.

With `OCC1(c2ccc(-c3cc4c(-c5nnn[nH]5)c[nH]c4cc3Cl)s2)CC1` [compound 1084], the Kp at 3 h is below 0.1.

With `CS(=O)(=O)NC(=O)c1c[nH]c2cc(Cl)c(-c3ccc(-c4ccccc4)cc3)cc12` [compound 1112], the Kp at 3 h is below 0.1.
